Measured values taken from ChEMBL document CHEMBL1145167, “Design and synthesis of 4-(alpha-hydroxymalonyl)phenylalanine as a new phosphotyrosyl mimetic and its use in growth factor receptor bound 2 src-homology 2 (Grb2 SH2) domain-binding peptides” (J Med Chem, 2005).
pIC50: −log10 of the molar value.

Biological target: T1, Growth factor receptor-bound protein 2 (Homo sapiens, UniProt P62993)
Assay: Inhibition of Grb2 SH2 domain binding in ELISA

Row | pIC50 | Compound
1 | 7.33 | CC(=O)N[C@@H](Cc1ccc(OP(=O)(O)O)cc1)C(=O)NC1(C(=O)N[C@@H](CC(N)=O)C(=O)NCCCc2cccc3ccccc23)CCCCC1

Biological target: T1, Growth factor receptor-bound protein 2
Assay: Steady-state affinity constant for Grb2 SH2 domain binding by surface plasmon resonance

Row | Keq [µM] | Compound
2 | 1.54 | NC(=O)C[C@H](NC(=O)C1(NC(=O)[C@H](Cc2ccc(C(O)C(=O)O)cc2)NC(=O)C(=O)O)CCCCC1)C(=O)NCCCc1cccc2ccccc12 (stereo partly specified)
3 | 0.27 | NC(=O)C[C@H](NC(=O)C1(NC(=O)[C@H](Cc2ccc(C(O)(C(=O)O)C(=O)O)cc2)NC(=O)C(=O)O)CCCCC1)C(=O)NCCCc1cccc2ccccc12
4 | 0.24 | CC(=O)N[C@@H](Cc1ccc(OP(=O)(O)O)cc1)C(=O)NC1(C(=O)N[C@@H](CC(N)=O)C(=O)NCCCc2cccc3ccccc23)CCCCC1
5 | 0.149 | NC(=O)C[C@H](NC(=O)C1(NC(=O)[C@H](Cc2ccc(C(C(=O)O)C(=O)O)cc2)NC(=O)C(=O)O)CCCCC1)C(=O)NCCCc1cccc2ccccc12
6 | 6.11 | NC(=O)C[C@H](NC(=O)C1(NC(=O)[C@H](Cc2ccc(CC(=O)O)cc2)NC(=O)C(=O)O)CCCCC1)C(=O)NCCCc1cccc2ccccc12
